In PMC12904088, “Development of Dimethylsulfonium Probes for Broad Profiling of Methyllysine Reader Proteins” (Advanced Science, 2025):
pKd: −log10 of the molar value. Square brackets hold non-standard residues; d marks the D form. Ends that are not written are not given here. Lys(Me3) = C[N+](C)(C)CCCC[C@H](N)C(=O)O

What was measured:
tumor growth = conditions: mouse models; cited from earlier work
Description: (§1) Reader proteins, which specifically recognize methylation modifications at specific sites, are crucial for the biological functions of lysine methylation (Figure 1A).^[ [11], [12], [13], [14] ^] For example, BPTF is a reader of H3K4me3 that is in the NURF complex for RNA polymerase II activities.^[ [15] ^] CBX1 is a reader of H3K9me3 that promotes liquid‐liquid phase separation for the formation of heterochromatin. As a result, the local genes in chromatin are condensed and not accessible to transcription.^[ [16], [17], [18] ^] In addition, readers also play important roles in tumorigenesis. F ...

PRC2 = conditions: cited from earlier work
Description: as §1

[1] = system: HeLa cell nuclei proteins; assay: Proteomic experiment for inhibitor evaluation: probe 12 with MS31 competition; assay type: cell-based, Homo sapiens
Description: HeLa cells (1.8 × 10^7) were harvested, washed with pre‐cooled phosphate buffer saline (PBS), and lysed in hypotonic buffer (10 mM Tris, 15 mM NaCl, 1.5 mM MgCl2, 0.2 mM PMSF, pH 7.5) on ice with regular inversion for 10–15 min. After centrifugation at 200 g for 5 min at 4°C, the pellet was resuspended in hypotonic buffer and homogenized with three strokes of a loose pestle Dounce homogenizer. The intact nuclei were washed with a hypotonic buffer and collected by centrifugation. Then, the nuclei were resuspended in crosslink buffer (100 mM HEPES, 150 mM KCl, 1.5 mM MgCl2, 0.2 mM PMSF, pH 7.5) and divided into two groups (Group A and Group B), each of which contained three parallel samples. The general probe was added to Group A. The same amount of the general probe and extra competing peptides was added to Group B. These samples were transferred to a 24‐well plate, incubated on ice for 10 min, and irradiated under 313 nm UV for 20 min on ice. Next, the nuclei were washed with crosslinking buffer three times. […]
Label‐free quantification was performed with Proteome Discoverer 2.5, which was used for database searches against the Homo sapiens (Human) proteome database retrieved from UniProtKB (accession UP000005640). […]

SPIN2B [2] = assay: Western blot: inhibition of crosslinking of probe 12 by MS31; assay type: biochemical, human; conditions: 2.5 mM probe 12, 10 µM SPIN2B, 200 µM MS31, 0.5% DMSO, UV 30 min, streptavidin-HRP blot; Figure 5D
Description: BPTF, CBX1, and SPIN1 were expressed and purified as previously reported.^[ [54], [59] ^] Full‐length SPIN2B (residues 1–258) from human was cloned into the pET‐28a vector with an N‐terminal 6×His‐SUMO‐tag. It was over‐expressed in Rosetta (DE3) Escherichia coli cells by induction of 0.25 mM isopropyl β‐D‐thiogalactoside (IPTG) at 16 °C overnight when OD600 reached 0.6–0.8 in the LB medium. The harvested cells were suspended in lysis buffer (20 mM Tris, 150 mM NaCl, 0.2 mM PMSF, pH 7.5) and lysed by sonication; then, the cell lysate was centrifuged to remove the insoluble cell debris. The clarified supernatant was loaded on nickel resin equilibrated in lysis buffer. Afterward, the protein‐bound resin was washed sequentially with lysis buffer, high salt buffer (20 mM Tris, 500 mM NaCl, pH 7.5), and 20 mM imidazole buffer (20 mM Tris, 150 mM NaCl, 20 mM imidazole, pH 7.5). The target proteins were eluted by 200 mM imidazole buffer (20 mM Tris, 150 mM NaCl, 200 mM imidazole, pH 7.5), followed by the solution exchanged to storage buffer (20 mM Tris, 150 mM NaCl, pH 7.5). The product was concentrated, snap‐frozen, and stored at −80°C. […]
For SPIN1 and SPIN2B found in the volcano plot, 5 sets of samples were designed, respectively. […] Finally, the membranes were washed with 1×TBST buffer three times, and the protein bands were detected by enhanced chemiluminescence reagent.

SPIN4 = conditions: cited from earlier work
Description: (§2) To verify this approach, we selected MS31, a potent and selective fragment‐like inhibitor that primarily targets the H3K4me3 reader SPIN1 by binding to its Tudor2 domain.^[ [64], [65], [66] ^] […] We used peptide 12, which replaced desthiobiotin of peptide 5 with biotin to enhance binding affinity to streptavidin beads, for a prot ...

SPIN2B [3] = conditions: cited from earlier work
Description: as §2

SPIN1 = conditions: cited from earlier work
Description: as §2

[4] = system: broad panel of other epigenetic readers and writers; conditions: cited from earlier work
Description: as §2

[5] = system: reader proteins (BPTF, CBX1); assay: In vitro crosslinking validation of general competition peptide; assay type: biochemical; conditions: 2.5 mM general probe, 7.5 mM peptide 13, 10 µM reader, pH 7.5, UV 30 min; Figure 6B
Description: Probes were added to the crosslinking buffer (100 mM HEPES, pH 7.5), followed by the addition of reader proteins. The mixture was transferred to 96‐well plates and incubated on ice for 10 min. After UV irradiation on ice at an energy of 720 mJ cm^−2, the samples were analyzed by UPLC‐Q‐TOF‐MS. The analytical yield was calculated based on the mass peak areas as previously reported.^[ [55] ^] The yield is calculated as the peak area of the desired product divided by the sum of the peak areas of the crosslinking products and the starting material, multiplied by 100%. For crosslinking readers with general probes: The mixture of 5 mM general probes and 10 µM reader proteins (BPTF, CBX1, CDYL2) was crosslinked by the General procedure for crosslinking for 30 min. For competition assays, the mixture of 2.5 mM general probes, 100 µM H3K4me3 (1‐15) or H3K9me3 (1‐15) peptide or 7.5 mM […]me3GG, 10 µM reader proteins (BPTF, CBX1) was crosslinked by the General procedure for crosslinking for 20 min (H3K4me3 or H3K9me3 for competition) or 30 min ([…]me3GG for competition). For Kinetics of reader crosslinking: The mixture of 0.625/1.25/2.5/5/10 mM general probe and 10 µM reader proteins was crosslinked by the General procedure for crosslinking for 20 min. […]

**Q.** With `CS(=O)(=O)c1ccc(-c2cnc(NCc3ccco3)n3cnnc23)cc1` [EED226] as the molecule, how does the “Tumor growth suppression (in words)” value (tumor growth) read?
**A.** suppresses tumor growth in mouse models

**Q.** What about the “PRC2 activity inhibition (in words)” value (PRC2) of the same molecule?
**A.** effectively inhibits PRC2 activity

**Q.** With `COc1c(CN)cc(CN)cc1OCCCN1Cc2ccccc2C1` [MS31] as the molecule, how does the “Proteins significantly enriched (MS31 competition)” value ([1]; 2.5 mM probe 12 vs + 200 µM MS31, 313 nm UV 20 min, Log2(Fold Change) ≥0.5, p ≤ 0.05, n = 3) read?
**A.** 21 proteins

**Q.** And the “Known MS31 targets identified among enriched proteins” value ([1]; 2.5 mM probe 12 vs + 200 µM MS31, Log2(Fold Change) ≥0.5, p ≤ 0.05, n = 3)?
**A.** the expected primary target SPIN1 was identified, along with two other SPIN family members, SPIN4 and SPIN2B

**Q.** And the “Inhibition of crosslinking between SPIN2B and probe 12” value (SPIN2B [2])?
**A.** can be inhibited by MS31

**Q.** What about the “Binding affinity (in words)” value (SPIN4) of the same molecule?
**A.** moderate binding affinity

**Q.** What about the “Binding affinity (in words)” value (SPIN2B [3]) of the same molecule?
**A.** moderate binding affinity

**Q.** What about the pKd (SPIN1) of the same molecule?
**A.** 7.04

**Q.** And the “Selectivity (in words)” value [4]?
**A.** high selectivity over a broad panel of other epigenetic readers and writers

**Q.** For RKGGGGGG[Lys(Me3)]GG [peptide 13], which “Competition of general probe crosslinking by peptide 13” value [5] is on record?
**A.** three equivalents of the peptide were sufficient to achieve complete competition
